Consider 16 compounds from patent US10104891B2 (priority 2014, dated 2018).

What all share (type): in vivo
One assay has as its system Pythium graminicola. The experiment in a line: Test 4: control effect against rice damping-off by the Pythium fungus (soil lavage). Particulars: 1,000 ppm, 2.5 ml test suspension drenched on contaminated soil, rice (koshihikari). The method, then: A 10% wettable powder created according to the Pharmaceutical Formulation Example 1 was diluted with a Tween20 solution prepared to a concentration of 1/5000, then the compound of formula [1] was prepared to a concentration of 4 ppm. Further, the compound of formula [1] in Test 4 was adjusted to a concentration of 1,000 ppm.
<Test 4 Test of Control Effect Against Rice Damping-Off by the Pythium Fungus (Soil Lavage)>
Distilled water was added to the flora of Pythium graminicola cultured in bentoglass seed culture and stirred with a mixer, and adjusted the contaminated soil to 5 g of bacteria against 1 kg of soil.
In a cell tray having 31×31 mm^2 per cell, 20 ml of the contaminated soil was filled in each cell, and 3 seeds of rice chaff that has been forced to sprout (Species: koshihikari) were seeded, and 5 ml of soil was added for covering, then 2.5 ml of test suspension was drenched, and the seeds were incubated in a moist chamber adjusted to 28° C. for 72 hr to induce sprouting. Then, in a low temperature room of 5° C., the onset of disease was induced for 2 days, then the disease was nurtured for 14 days in a room of 25° C.
The soil was washed, and the apoptosis strain, growth restrained strain, and a healthy strain were measured and the onset rate was calculated by the following formula. Onset rate=[Σ(onset strain number by level×onset index)/(investigated strain×3)]×100 [Onset Index]
1: Growth restrained strain
Also, the following formula was used to compute the control value from the obtained onset index. control value={1−onset area rate at the section applied the test agent/onset area rate of untreated section}×100 Computational formula of the control value: […]

For the next assay, the system named is Plasmopara viticola. The experiment in a line: Test 3: control effect against grape downy mildew. Particulars: control value vs untreated section; for pest or weed control at 4 µg/mL: Plasmopara viticola, 120 h. Summed up: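 Neomuscat grape seedlings were sprayed with compound at 4 ppm, diluted from a 10% wettable powder in Tween20 solution. One day later they were inoculated with Plasmopara viticola zoospores at 1.0×10^4 units/ml and held moist at 22° C. for 16 hr. Control value was derived from leaf lesion area at 5 days versus untreated leaves.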

The next assay concerns Phytophthora infestans. The experiment in a line: whole plant or invertebrate. The following applies: for pest or weed control at 4 µg/mL: Phytophthora infestans, in Solanum lycopersicum, 96 h, read-out: control value (Test 1); for control value (Test 1): tomato late blight, control value vs untreated section.
In assay [1] the test system is Pseudoperonospora cubensis. The experiment in a line: Test 2: control effect against cucumber downy mildew. The following applies: control value vs untreated section; for pest or weed control at 4 µg/mL: Pseudoperonospora cubensis, 120 h. The gist of the method: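 Cucumber (Sagami hanjiro) at 2-leaf stage sprayed with 4 ppm compound from 10% wettable powder in Tween20 (1/5000); inoculated next day with P. cubensis zoospores, 1.0×10^4 units/ml, 16 hr moist chamber at 22° C. Lesion area rate scored 5 days post-inoculation; control value = (1 − treated/untreated onset area rate)×100.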

Some results are limits rather than exact numbers.

Compound `Cc1cc(C(F)(F)F)nn1CC(=O)N1CCC(c2nc(C3OCc4c(F)ccc(F)c4CO3)cs2)CC1` [Compound 1-3, 4-[4-(6,9-difluoro-1,5-dihydro-3H-2,4-benzodioxepin-3-yl)-2-thiazolyl]-1-[2-[5-methyl-3-(trifluoromethyl)-1H-pyrazole-1-yl]acetyl]piperidine] returned a pest or weed control at 1000 ppm with Pythium graminicola of at least 90%. The pest or weed control at 4 µg/mL (with Plasmopara viticola; with Phytophthora infestans; in assay [1]) was 100% each time.

`Cc1cc(C(F)(F)F)nn1CC(=O)N1CCC(c2nc(C3OCc4cccc(OS(C)(=O)=O)c4CO3)cs2)CC1` (stereo not shown) [Compound 1-6, 4-[4-(6-methylsulfonyloxy-1,5-dihydro-3H-2,4-benzodioxepin-3-yl)-2-thiazolyl]-1-[2-[5-methyl-3-(trifluoromethyl)-1H-pyrazole-1-yl]acetyl]piperidine] showed a pest or weed control at 1000 ppm with Pythium graminicola of at least 90%. For the same compound, the pest or weed control at 4 µg/mL (in the assay with Plasmopara viticola; in the assay with Phytophthora infestans; in assay [1]) was 100% each time.

As for `Cc1cc(C(F)(F)F)nn1CC(=O)N1CCC(c2nc(C3OCc4ccc(F)cc4CO3)cs2)CC1` (stereo not shown) [Compound 1-11, 4-[4-(7-fluoro-1,5-dihydro-3H-2,4-benzodioxepin-3-yl)-2-thiazolyl]-1-[2-[5-methyl-3-(trifluoromethyl)-1H-pyrazole-1-yl]acetyl]piperidine], in the assay with Pythium graminicola, the pest or weed control at 1000 ppm was at least 90%. For the same compound, the pest or weed control at 4 µg/mL (in the assay with Plasmopara viticola; in the assay with Phytophthora infestans; in assay [1]) was 100% each time.

For `Cc1cc(C(F)(F)F)nn1CC(=O)N1CCC(c2nc(C3OCc4cccc(Br)c4CO3)cs2)CC1` (stereo not shown) [Compound 1-15, 4-[4-(6-bromo-1,5-dihydro-3H-2,4-benzodioxepin-3-yl)-2-thiazolyl]-1-[2-[5-methyl-3-(trifluoromethyl)-1H-pyrazole-1-yl]acetyl]piperidine], the pest or weed control at 1000 ppm with Pythium graminicola was at least 90%. Moreover, the pest or weed control at 4 µg/mL (in the assay on Plasmopara viticola; in the assay with Phytophthora infestans; in assay [1]) was 100% throughout.

Compound `CCCCS(=O)(=O)Oc1cccc2c1COC(c1csc(C3CCN(C(=O)Cn4nc(C(F)(F)F)cc4C)CC3)n1)OC2` (stereo not shown) [Compound 1-21, 4-[4-(6-butylsulfonyloxy-1,5-dihydro-3H-2,4-benzodioxepin-3-yl)-2-thiazolyl]-1-[2-[5-methyl-3-(trifluoromethyl)-1H-pyrazole-1-yl]acetyl]piperidine] yielded a pest or weed control at 1000 ppm in the assay with Pythium graminicola of at least 90%. Besides, the pest or weed control at 4 µg/mL was 100% in the assay on Plasmopara viticola, 90% in the assay with Phytophthora infestans and 100% in assay [1].

As to `CCCS(=O)(=O)Oc1cccc2c1COC(c1csc(C3CCN(C(=O)Cn4nc(C(F)(F)F)cc4C)CC3)n1)OC2` (stereo not shown) [Compound 1-22, 4-[4-(6-propylsulfonyloxy-1,5-dihydro-3H-2,4-benzodioxepin-3-yl)-2-thiazolyl]-1-[2-[5-methyl-3-(trifluoromethyl)-1H-pyrazole-1-yl]acetyl]piperidine], in the assay with Pythium graminicola, the pest or weed control at 1000 ppm is at least 90%. Also, the pest or weed control at 4 µg/mL (in the assay with Plasmopara viticola; in the assay with Phytophthora infestans; in assay [1]) was 100% each time.

The compound `Cc1cc(C(F)(F)F)nn1CC(=O)N1CCC(c2nc(C3OCc4cccc(Cl)c4CO3)cs2)CC1` (stereo not shown) [Compound 1-23, 4-[4-(6-chloro-1,5-dihydro-3H-2,4-benzodioxepin-3-yl)-2-thiazolyl]-1-[2-[5-methyl-3-(trifluoromethyl)-1H-pyrazole-1-yl]acetyl]piperidine] yielded a pest or weed control at 1000 ppm in the assay with Pythium graminicola of at least 90%. Further, the pest or weed control at 4 µg/mL (in the assay on Plasmopara viticola; in the assay on Phytophthora infestans; in assay [1]) was 100% throughout.

As to `Cc1cc(C(F)(F)F)nn1CC(=O)N1CCC(c2nc(C3OCc4c(OS(C)(=O)=O)ccc([N+](=O)[O-])c4CO3)cs2)CC1` (stereo not shown) [Compound 1-32, 4-[4-(6-methylsulfonyloxy-9-nitro-1,5-dihydro-3H-2,4-benzodioxepin-3-yl)-2-thiazolyl]-1-[2-[5-methyl-3-(trifluoromethyl)-1H-pyrazole-1-yl]acetyl]piperidine], the pest or weed control at 1000 ppm in the assay with Pythium graminicola was at least 90%. Moreover, the pest or weed control at 4 µg/mL (with Plasmopara viticola; in the assay on Phytophthora infestans; in assay [1]) was 100% throughout.

Compound `Cc1cc(C(F)(F)F)nn1CC(=O)N1CCC(c2nc(C3OCc4cccc(O)c4CO3)cs2)CC1` (stereo not shown) [Compound 1-33, 4-[4-(6-hydroxy-1,5-dihydro-3H-2,4-benzodioxepin-3-yl)-2-thiazolyl]-1-[2-[5-methyl-3-(trifluoromethyl)-1H-pyrazole-1-yl]acetyl]piperidine] displayed a pest or weed control at 1000 ppm with Pythium graminicola of at least 90%. The pest or weed control at 4 µg/mL (in the assay on Plasmopara viticola; with Phytophthora infestans; in assay [1]) was 100% each time.

`Cc1cc(C(F)(F)F)nn1CC(=O)N1CCC(c2nc(C3OCc4cccc(OC(=O)C5CC5)c4CO3)cs2)CC1` (stereo not shown) [Compound 1-34, 4-[4-(6-cyclopropylcarbonyloxy-1,5-dihydro-3H-2,4-benzodioxepin-3-yl)-2-thiazolyl]-1-[2-[5-methyl-3-(trifluoromethyl)-1H-pyrazole-1-yl]acetyl]piperidine] returned a pest or weed control at 1000 ppm in the assay with Pythium graminicola of at least 90%. Besides, the pest or weed control at 4 µg/mL (with Plasmopara viticola; with Phytophthora infestans; in assay [1]) was 100% in each case.

Take `Cc1cc(C(F)(F)F)nn1CC(=O)N1CCC(c2nc(C3OCc4cccc(OS(=O)(=O)C(F)(F)F)c4CO3)cs2)CC1` (stereo not shown) [Compound 1-36, 4-[4-[6-(trifluoromethyl)sulfonyloxy-1,5-dihydro-3H-2,4-benzodioxepin-3-yl]-2-thiazolyl]-1-[2-[5-methyl-3-(trifluoromethyl)-1H-pyrazole-1-yl]acetyl]piperidine]: the pest or weed control at 1000 ppm in the assay with Pythium graminicola is at least 90%. The pest or weed control at 4 µg/mL (in the assay on Plasmopara viticola; in the assay on Phytophthora infestans; in assay [1]) was 100% each time.

In the assay with Pythium graminicola, `Cc1cc(C(F)(F)F)nn1CC(=O)N1CCC(c2nc(C3OCc4ccc(Cl)cc4CO3)cs2)CC1` (stereo not shown) [Compound 1-40, 4-[4-(7-chloro-1,5-dihydro-3H-2,4-benzodioxepin-3-yl)-2-thiazolyl]-1-[2-[5-methyl-3-(trifluoromethyl)-1H-pyrazole-1-yl]acetyl]piperidine] came in with a pest or weed control at 1000 ppm of at least 90%. Moreover, the pest or weed control at 4 µg/mL (with Plasmopara viticola; in the assay on Phytophthora infestans; in assay [1]) was 100% in each case.

In turn, `Cc1ccc(OS(C)(=O)=O)c2c1COC(c1csc(C3CCN(C(=O)Cn4nc(C(F)F)cc4C(F)F)CC3)n1)OC2` (stereo not shown) [Compound 1-44, 4-[4-(6-methyl-9-methylsulfonyloxy-1,5-dihydro-3H-2,4-benzodioxepin-3-yl)-2-thiazolyl]-1-[2-[3,5-bis(difluoromethyl)-1H-pyrazole-1-yl]acetyl]piperidine] yielded a pest or weed control at 1000 ppm with Pythium graminicola of at least 90%. Besides, the pest or weed control at 4 µg/mL (in the assay on Plasmopara viticola; with Phytophthora infestans; in assay [1]) was 100% throughout.

For the compound `COc1ccc(OS(C)(=O)=O)c2c1COC(c1csc(C3CCN(C(=O)CON=CC(F)(F)F)CC3)n1)OC2` (stereo not shown) [Compound 3-5], the “control value (Test 3)” value with Plasmopara viticola turned out to be 100. Also, in the assay on Phytophthora infestans, the “control value (Test 1)” value is 100. The “control value (Test 2)” value in assay [1] is on record as 100.

Consider `CS(=O)(=O)Oc1cccc2c1COC(c1csc(C3CCN(C(=O)CON=CC(F)(F)F)CC3)n1)OC2` (stereo not shown) [Compound 3-6], for which, in the assay on Plasmopara viticola, the “control value (Test 3)” value was 100. The “control value (Test 1)” value in the assay with Phytophthora infestans is listed as 100. The “control value (Test 2)” value in assay [1] amounted to 100.

With `CO/C(=N\c1cc(C)ccc1C)N1CCC(c2nc(C3OCc4cccc(OS(C)(=O)=O)c4CO3)cs2)CC1` (stereo not shown) [Compound 4-1, 4-[4-(6-methylsulfonyloxy-1,5-dihydro-3H-2,4-benzodioxepin-3-yl)-2-thiazolyl]-1-[(Z)-[(2,5-dimethylphenyl)imino](methoxy)methyl]piperidine], the pest or weed control at 4 µg/mL (in the assay with Plasmopara viticola; in the assay on Phytophthora infestans; in assay [1]) was 100% each time.
